According to patent US12478629B2, “Use of glucocorticoids for the treatment of epithelial microbial infections of a fluid containing organ with a natural exterior orifice in mammals” (VIRBAC, priority 2018, dated 2025):

System: mild clinical mastitis
Test: Multicenter clinical field study, intramammary treatment of mild clinical mastitis
Format: in vivo, lactating cows and heifers
Procedure: The purpose of this multicenter clinical field study is to evaluate the efficacy and the safety of HCA at a dosage of 20 mg in 10 ml of Vaseline oil based formulation every 12±2 h hours (minimum of one and maximum of four treatments) in the intramammary treatment of mild clinical mastitis in lactating cows; more specifically to assess the efficacy (clinical cure rate) of HCA alone in the treatment of udder inflammation (mild clinical mastitis), under field conditions and to assess the safety and the risk of aggravation or relapses during and after the treatment with HCA alone.
Animals (50 lactating cows and heifers presenting clinical symptoms of mastitis) have been intramammarily treated with one syringe (10 mL) containing 20 mg of HCA at each time point for a minimum of 1 and a maximum of 4 treatments in a 12±2 h interval (each morning or evening milking time, respectively). Depending on the result of the clinical examination and the clinical status classification, the animal has been treated until the animal was classified as clinically cured, failure or the maximum of 4 treatments is reached.
Before the tested treatment, a sample of milk of each animal has been collected to be tested for bacteriology of classical pathogenic bacteria; among the 50 animals, 34 produced a milk containing pathogenic bacteria, no pathogenic bacteria has been detected in the milk of the 16 remaining animals, it can nevertheless not be excluded that those 16 animals were infected by a non-tested pathogenic bacteria.

CCC(=O)O[C@]1(C(=O)COC(C)=O)CC[C@H]2[C@@H]3CCC4=CC(=O)CC[C@]4(C)[C@H]3[C@@H](O)C[C@@]21C [HCA, hydrocortisone 21-acetate 17α-propionate]
animals cured (clinical cure rate) (16 animals bacteriologically negative at DO): 56.3%
animals cured (clinical cure rate) (34 animals bacteriologically positive at DO): 20.6%
animals cured (clinical cure rate) (all 50 animals, 20 mg HCA in 10 mL intramammary every 12±2 h, after 3 or 4 administrations): 32%
adverse effect of the treatment / tolerance (intramammary, 20 mg in 10 mL, 1 to 4 treatments): No adverse effect
